In the NIST ThermoML archive (doi:10.1021/je800234h):

Test: mn = molality of the nth substance listed, in mol/kg
Details: Liquid, Vibrating tube method

[Ca+2].[Cl-].[Cl-] [calcium chloride] + CCO
mass density [kg/m3]
Details | 348.15 K | 373.15 K
370 kPa, m1 = 0.09327 | – | 722.5
390 kPa, m1 = 1.55 | – | 828.22
420 kPa, m1 = 1.266 | – | 808.17
680 kPa, m1 = 0.1743 | – | 728.72
870 kPa, m1 = 0.6899 | – | 766.95
920 kPa, m1 = 0.9896 | – | 788.74
940 kPa, m1 = 0.4379 | – | 749.01
4980 kPa, m1 = 1.266 | – | 813.49
5040 kPa, m1 = 0.9896 | – | 794.18
5060 kPa, m1 = 0.1743 | – | 735.26
5140 kPa, m1 = 1.55 | – | 834.25
5150 kPa, m1 = 0.6899 | – | 772.7
5170 kPa, m1 = 0.4379 | – | 754.76
5180 kPa, m1 = 0.09327 | – | 729.16
9780 kPa, m1 = 1.266 | – | 818.85
10150 kPa, m1 = 1.55 | – | 840.15
10480 kPa, m1 = 0.09327 | – | 736.08
10480 kPa, m1 = 0.4379 | – | 761.55
10740 kPa, m1 = 0.1743 | – | 743.09
10740 kPa, m1 = 0.6899 | – | 779.75
10740 kPa, m1 = 0.9896 | – | 801.21
15190 kPa, m1 = 0.4379 | – | 767.19
15210 kPa, m1 = 0.6899 | – | 785.01
15250 kPa, m1 = 0.1743 | – | 748.79
15260 kPa, m1 = 1.266 | – | 824.65
15290 kPa, m1 = 1.55 | – | 845.7
15360 kPa, m1 = 0.9896 | – | 806.48
15720 kPa, m1 = 0.09327 | – | 742.49
20030 kPa, m1 = 1.266 | – | 829.44
20140 kPa, m1 = 1.55 | – | 850.48
20160 kPa, m1 = 0.4379 | – | 772.75
20280 kPa, m1 = 0.09327 | – | 747.72
20480 kPa, m1 = 0.1743 | 776.42 | –
20640 kPa, m1 = 0.1743 | – | 754.98
20640 kPa, m1 = 1.55 | 872.48 | –
20670 kPa, m1 = 0.9896 | 834.64 | –
20750 kPa, m1 = 0.9896 | – | 812.16
20840 kPa, m1 = 0.4379 | 796.01 | –
20860 kPa, m1 = 0.6899 | – | 791.16
25040 kPa, m1 = 0.4379 | 799.76 | –
25060 kPa, m1 = 1.266 | 855.9 | –
25130 kPa, m1 = 0.4379 | – | 777.9
25160 kPa, m1 = 0.09327 | 774.52 | –
25180 kPa, m1 = 0.1743 | – | 759.68
25190 kPa, m1 = 1.55 | 876.08 | –
25410 kPa, m1 = 1.266 | – | 834.54
25620 kPa, m1 = 0.1743 | 781.15 | –
25670 kPa, m1 = 0.09327 | – | 753.48
25740 kPa, m1 = 0.6899 | 818.02 | –
25750 kPa, m1 = 1.55 | – | 855.45
25840 kPa, m1 = 0.6899 | – | 796.14
25940 kPa, m1 = 0.9896 | 839.09 | 817.13
29980 kPa, m1 = 1.266 | – | 838.62
30140 kPa, m1 = 1.55 | – | 858.93
30150 kPa, m1 = 0.6899 | – | 800.1
30160 kPa, m1 = 0.9896 | – | 820.83
30240 kPa, m1 = 0.4379 | – | 782.77
30420 kPa, m1 = 0.1743 | 785.25 | –
30480 kPa, m1 = 0.09327 | 779.14 | –
30610 kPa, m1 = 0.6899 | 821.98 | –
30610 kPa, m1 = 1.266 | 860.42 | –
30730 kPa, m1 = 0.4379 | 804.51 | –
30750 kPa, m1 = 1.55 | 880.1 | –
30860 kPa, m1 = 0.9896 | 842.93 | –
35150 kPa, m1 = 0.4379 | 807.92 | –
35290 kPa, m1 = 1.55 | 883.06 | –
35370 kPa, m1 = 0.9896 | 846.17 | –
35410 kPa, m1 = 0.09327 | 783.08 | –
35480 kPa, m1 = 1.266 | 864.22 | –
35640 kPa, m1 = 0.6899 | 825.77 | –
35860 kPa, m1 = 0.1743 | 789.53 | –
39260 kPa, m1 = 0.09327 | 785.92 | –
39380 kPa, m1 = 0.4379 | 810.96 | –
39490 kPa, m1 = 0.6899 | 828.45 | –
39880 kPa, m1 = 1.55 | 885.77 | –
39960 kPa, m1 = 1.266 | 867.59 | –
39970 kPa, m1 = 0.1743 | 792.5 | –
39970 kPa, m1 = 0.9896 | 849.2 | –
